Measurements taken from US8058285B2, “Substituted pyrido [3′, 2′: 4, 5] thieno [3, 2-D] pyrimidines and pyrido [3′, 2′: 4, 5] furo [3, 2-D] pyrimidines used as inhibitors of the PDE-4 and/or the release of TNF-ALPHA” (The Medicines Company (Leipzig) GmbH, priority 2004, dated 2011).
Where “and” joins values, the source holds several entries; their conditions need not be identical. Equal entries are not always repeated.

Molecular target: T1, PDE-4A (Homo sapiens, UniProt P27815)
T1 construct: PDE-4A catalytic domain comprising amino acids 342-704; made in house; host or cells: Escherichia coli
T1 sequence (P27815 342-704): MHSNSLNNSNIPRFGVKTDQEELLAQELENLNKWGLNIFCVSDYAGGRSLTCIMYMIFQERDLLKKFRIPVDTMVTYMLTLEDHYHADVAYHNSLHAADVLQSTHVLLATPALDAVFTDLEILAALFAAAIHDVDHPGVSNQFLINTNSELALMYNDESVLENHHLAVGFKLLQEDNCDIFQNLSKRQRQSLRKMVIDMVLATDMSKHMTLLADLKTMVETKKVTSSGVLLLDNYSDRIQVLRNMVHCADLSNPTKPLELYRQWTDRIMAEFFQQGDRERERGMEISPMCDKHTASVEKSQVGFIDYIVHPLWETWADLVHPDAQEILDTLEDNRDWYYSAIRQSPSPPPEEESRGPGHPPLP
Experiment: PDE-4A inhibitory assay (SPA)
Type: biochemical
Text: Human recombinant PDE-4A catalytic domain comprising amino acids 342-704 was cloned into Escherichia coli and expressed, as described by W. Richter et al., Protein Expression and Purification (2000) 19: 375-383. The other posphodiesterases were either obtained from cell lines of human origin (TPH1 monocytes line for PDE-1, MCF7 for PDE-5) or expressed recombinantly in sf9 insect cells (for PDE-3A, PDE-3B, PDE-7A and PDE-4D) in accordance with an adapted method by Luckow, V. A. et al., in: Recombinant DNA Technology & Applications., (1991) eds. Prokop, Bajpai, R. K. & Ho, C. S., pp 97-152.
The phosphodiesterase activity was determined by the SPA assay as described by the manufacturer Amersham Biosciences and by Horton J. K and Baxendale P. M., Methods Mol. Biol. (1995) 41: 91-105.
The reaction mixtures contained 100 mM Tris-HCl (pH 7.5), 5 mM MgCl2, 3.8 mM 2-mercaptoethanol, and 1 μM cAMP or cGMP as a substrate, the inhibitors at different concentrations and also further components required for the detection of the individual isoenzymes (see below). The reaction was started by adding the enzyme. The operating volume is 100 μl in the wells of a white 96-Well microtiter plate. The test substances were produced as stock solutions in DMSO. The DMSO concentration in the reaction batch was 1% v/v. The PDE activity is not impaired with this DMSO concentration. Having started the reaction by the addition of enzyme, the samples were incubated at 22° C. for 20 min. The reaction was stopped by the addition of SPA bead suspension which contains the zinc sulfate concentration provided according to the manufacturer. Then, the beads are allowed to sediment for 30 min and the plates are analyzed on the luminescence microtiter plate reader Fluostar Optima (BMG Labtechologies).
[^3H]-cAMP was used as a substrate for determining the activity of PDE-2, -3, -4 and -7 and [^3H]-cGMP for determining the activity of PDE-5. The non-specific enzyme activities were determined in the presence of 100 μM rolipram (for PDE-4) and in the presence of 100 μM IBMX (for PDE-3 and -5) and subtracted from the test values. The incubation samples of the PDE-3 assay contain 10 μM rolipram to inhibit possible contaminations by PDE-4. The PDE-2 activity is tested using a SPA assay by Amersham Biosciences in the presence of the PDE-2 activator 5 μM cGMP. […] The selectivity as to PDEs 2, 3 and 5 has a factor of 100 to 10 000.

Row | IC50 | SMILES
1 | 2 to 50 nM | CCOc1nc(N2CCNCC2)nc2c1sc1nc(-c3ccc(OC)cc3)nc(C)c12 [4-Ethoxy-7-(4-methoxy-phenyl)-9-methyl-2-piperazin-1-yl-thieno[2,3-d:4,5-d′]dipyrimidine]
2 | 2 to 50 nM | CCOc1nc(N2CCNCC2)nc2c1sc1nc(-c3ccc(-c4ccn(C(=O)OC(C)(C)C)c4)cc3)nc(C)c12 [4-Ethoxy-9-methyl-2-piperazin-1-yl-7-(4-[N—BOC-3-pyrrolyl]-phenyl)-thieno[2,3-d:4,5-d′]dipyrimidine]
3 | < 2 nM and 2 to 50 nM | CCOc1nc(N2CCNCC2)c2sc3nc(-c4ccc(C)cc4)cc(CC)c3c2n1 [2-Ethoxy-9-ethyl-7-(4-methyl-phenyl)-4-(piperazin-1-yl)-pyrido[3′,2′:4,5]thieno[3,2-d]pyrimidine]
4 | 2 to 50 nM | CCOc1nc(N2CCNCC2)nc2c1sc1nc(-c3ccccc3)nc(C)c12 [4-Ethoxy-9-methyl-7-phenyl-2-piperazin-1-yl-thieno[2,3-d:4,5-d′]dipyrimidine]
5 | 2 to 50 nM | CCOc1nc(N2CCNCC2)nc2c1sc1nc(N3CCN(C)CC3)c3c(c12)CCCC3 [8-Ethoxy-5-(N-methyl-piperazin-1-yl)-10-piperazin-1-yl-pyrimido[4′,5′:4,5]thieno[2,3-c]-1,2,3,4-tetrahydro-isoquinoline]
6 | 2 to 50 nM | CCOc1nc(N2CCNCC2)c2sc3nc(-c4ccccc4)c4c(c3c2n1)CCCC4 [10-Ethoxy-5-phenyl-8-piperazin-1-yl-pyrimido[4′,5′:4,5]thieno[2,3-c]-1,2,3,4-tetrahydro-isoquinoline]
7 | 2 to 50 nM | CCOc1nc(N2CCNCC2)nc2c1sc1nc(-c3ccc(OCc4ccc([N+](=O)[O-])cc4)cc3)cc(C(F)(F)F)c12 [4-Ethoxy-7-[4-(4-nitrobenzyloxy)-phenyl]-2-piperazin-1-yl-9-trifluoromethyl-pyrido[3′,2′:4,5]thieno[3,2-d]pyrimidine]
8 | < 2 nM | CCOc1nc(N2CCNCC2)nc2c1sc1nc(-c3ccc4c(c3)OCO4)cc(C(F)(F)F)c12 [4-Ethoxy-7-(3,4-methylenedioxyphenyl)-2-piperazin-1-yl-9-trifluoromethyl-pyrido[3′,2′:4,5]thieno-[3,2-d]pyrimidine]
9 | < 2 nM | CCOc1nc(N2CCNCC2)nc2c1sc1nc(-c3ccc(-n4cccn4)cc3)cc(CC)c12 [4-Ethoxy-7-(4-(1H-pyrazol-1-yl)-phenyl)-9-ethyl-2-piperazin-1-yl-pyrido[3′,2′:4,5]thieno[3,2-d]pyrimidine]
10 | < 2 nM | CCOc1ccc(-c2cc(CC)c3c(n2)sc2c(OCC)nc(N4CCNCC4)nc23)cc1 [4-Ethoxy-7-(4-ethoxy-phenyl)-9-ethyl-2-(piperazin-1-yl)-pyrido[3′,2′:4,5]thieno[3,2-d]pyrimidine]
11 | < 2 nM | CCOc1nc(N2CCNCC2)nc2c1sc1nc(-c3ccc(C)cc3)cc(C(C)C)c12 [4-Ethoxy-7-(4-methyl-phenyl)-9-iso-propyl-2-(piperazin-1-yl)-pyrido[3′,2′:4,5]thieno-[3,2-d]pyrimidine]
12 | 2 to 50 nM | CCOc1nc(N2CCNCC2)nc2c1sc1nc(C(C)C)cc(C(C)C)c12 [4-Ethoxy-7,9-di-iso-propyl-2-(piperazin-1-yl)-pyrido[3′,2′:4,5]thieno[3,2-d]pyrimidine]
13 | 2 to 50 nM | Cc1cc(-c2ccccc2)nc2sc3c(OCCO)nc(N4CCNCC4)nc3c12 [4-(2-Hydroxy-ethoxy)-9-methyl-7-phenyl-2-(piperazin-1-yl)-pyrido[3′,2′:4,5]thieno[3,2-d]pyrimidine]
14 | 2 to 50 nM | CCOc1nc(N2CCNCC2)nc2c1sc1nc(Cc3ccccc3)nc(C)c12 [7-Benzyl-4-ethoxy-9-methyl-2-piperazin-1-yl-thieno[2,3-d:4,5-d′]dipyrimidine]
15 | 2 to 50 nM | CCCOc1nc(N2CCNCC2)c2sc3nc(-c4ccccc4)cc(C)c3c2n1 [9-Methyl-7-phenyl-4-piperazin-1-yl-2-n-propoxy-pyrido[3′,2′:4,5]thieno[3,2-d]pyrimidine]
16 | < 2 nM | CCCOc1nc(N2CCNCC2)nc2c1sc1nc(-c3ccc(OCC)cc3)cc(CC)c12 [7-(4-Ethoxy-phenyl)-9-ethyl-2-(piperazin-1-yl)-4-n-propoxy-pyrido[3′,2′:4,5]thieno[3,2-d]pyrimidine]
